Data set [1] is described as follows: Distribution coefficient determination, D7.4 (1-octanol / K2HPO4 buffer). In kind it is physicochemical. The settings on record: 1-octanol / K2HPO4 buffer 50 mM pH 7.4; for logD: read-out: Log D7.4. Here is the method:
K2HPO4 buffer (50 mM, pH=7.4) and 1-octanol were used as the aqueous phase and the organic phase, respectively. The K2HPO4 buffer and 1-octanol were mixed, and pre-saturated with each other before use.
In a typical experiment, an aqueous solution of Apo6995 (3-hydroxy-2-methyl-1-(2,2,2-trifluoroethyl)pyridin-4(1H)-one) was prepared by weighing out 3 mg of the compound into a 10-mL test-tube. It was then mixed with K2HPO4 buffer (2 mL) and sonicated for 30 minutes with frequent vortexing. The solution was then filtered through HPLC syringe filter (4 mm PVDF syringe filter 0.45 μM) to obtain the aqueous solution.
One mL of this aqueous solution was pipetted out into another 10-mL test-tube and mixed with 1 mL of 1-octanol. The mixture was then vortexed for 1 hour. The solution was centrifuged at 2000 rpm for 10 minutes. A small amount of the lower aqueous layer was carefully pipetted out and analyzed by HPLC to obtain the peak height (HF). The distribution coefficient, D7.4, was calculated using the following equation: D7.4=(HI−HF)/HF.

Data set [2] deals with SH-SY5Y human neuroblastoma cells. As to conditions: for CC2 (cytotoxic concentration): H2O2-treated cells, viability below 80%; for CC1 (cytotoxic concentration): absence of H2O2, viability below 80%. An excerpt: Hydrogen peroxide (H2O2) is a major ROS (reactive oxidative species), which causes oxidative stress, and can induce apoptosis in many different cell types. One of the CNS drug design strategies is to use compounds with antioxidant properties as a possible treatment of both acute and chronic neurodegenerative diseases (Kang et al. Bioorganic & Medicinal Chemistry Letters, 2004, 14, 2261-2264). This involves testing the compounds of this invention for their protective effect against oxidative stress-induced cell death in SH-SY5Y human neuroblastoma cells. SH-SY5Y human neuroblastoma cells were cultured in DMEM (ATCC)/F12 (Cellgro) with 10% FBS. The cells were plated at 30,000 cells/cm^2 and grown for 1 day in the regular culture media prior to compound addition. Cells were routinely treated with the test compound, at a pre-determined range of concentrations, in the presence or absence of 50 μM hydrogen peroxide in a basal medium containing no FBS for 16-22 h. Cell viability was then measured using the routine MTT method (Mosmann, T., Rapid Colorimetric Assay for Cellular Growth and Survival: Application to Proliferation and Cytotoxicity Assays”. J. Immunol. Meth. 1983, 65, 55-63).
For data analysis, cell viability relative to control not treated with either H2O2 or the test compound, was plotted against the compound concentration. […] Cytotoxicity of the test compound was assessed in the absence of hydrogen peroxide.

The test system of data set [3] is human neuroblastoma MC-65 cells. The data set can be described thus: cells. The settings on record: for EC100 / minimal effective concentration: Homo sapiens, MC65, 48 h; for EC100: read-out: EC100 (maximum effective concentration); for minimal effective concentration: read-out: TH (threshold protective concentration); for CC2 (cytotoxic concentration): MC-65, cultured without tetracycline; for CC2 (cytotoxic concentration) / CC1 (cytotoxic concentration): viability below 80%; for CC1 (cytotoxic concentration): MC-65, presence of TET. On the procedure: In this assay, human neuroblastoma cells (MC-65 cells) are genetically engineered to conditionally express amyloid β peptide (Aβ). The Aβ production is suppressed by tetracycline (TET+) presence in culture medium, and its production is activated when TET is withdrawn (TET−). The activation of Aβ production results in cell death “MC-65 suicide”.
Protective effect of compounds against edogenously produced amyloid beta (Aβ) was assessed in human neuroblastoma MC-65 cells. MC-65 cells have been stably transformed to conditionally express high levels of a partial amyloid precursor (AP) fusion protein (Bryce Sopher et al., Brain Res Mol Brain Res. 1994, 207-17.). This protein is further proteolitically processed in the cells to form a set of AP-derived Aβ peptides. […] Activity of the promoter is tightly regulated by the presence of the antibiotic tetracycline (TET) in the culture medium. In the presence of TET (TET+), the promoter is in the basal state and no amyloid beta peptide is synthesized. In the absence of TET (TET−) the promoter is in induced state, resulting in the accumulation of Aβ peptides in the cells, degenerative changes in cell morphology and decreased survival.
Transfected human neuroblastoma cells (MC-65) were cultured in DMEM (ATCC) supplemented with non-essential amino acids and 10% FBS (VWR) in the presence of TET (1 μg/mL). For the experiment, the cells were plated at 35,000 cells/cm^2 and grown for 1 day in the regular culture media prior to compound addition. On the day of the assay, culture supernatant was removed from the wells and cells were thoroughly washed once with the compound incubation matrix containing no FBS and no TET. MC-65 cells were treated with a test compound at pre-determined range of concentrations in a basal medium containing no FBS and in the absence or presence of 1 μg/mL TET for approximately 48 h. Cell viability was then measured using the MTT method.
For data analysis, cell viabilities relative to the control not treated with a test compound and maintained in the presence of TET were plotted against the compound concentration. […] Cytotoxicity of the test compound was assessed in the cells maintained in the presence of TET.

Data set [4] is described as follows: Oral cassette dosing PK/BBB studies. As to conditions: oral cassette dosing; for Kp / AUC: rat; for Kp: brain and plasma, read-out: AUC brain/AUC plasma; for AUC: plasma. Format: in vivo, male Sprague-Dawley rats. On the procedure: In-vivo pharmacokinetic (PK) and blood brain barrier (BBB) studies were conducted in male Sprague-Dawley rats using cassette dosing via oral administration. […] No. 15, pp. 652-658.

Setting [5] is: male Sprague-Dawley rats, AUC normalized to 1 mg/kg dose.

From US9938240B2, “Fluorinated derivatives of 3-hydroxypyridin-4-ones” (Apotex Technologies Inc., priority 2009, dated 2018) come the findings set out here.

Structures are written as SMILES.

With `Cc1c(O)c(=O)ccn1CC(F)F` [Apo7069, 1-(2,2-difluoroethyl)-3-hydroxy-2-methylpyridin-4(1H)-one], in data set [1], the D7.4 stood at 0.66 and the “Log D7.4” value was −0.18. Also, in data set [2], the “CC2 (cytotoxic concentration)” value is >640 µM and the “CC1 (cytotoxic concentration)” value is 80 µM. Further, in data set [3], the EC100 came out at 40 µM, the minimal effective concentration amounted to 0.1 µM, the “CC2 (cytotoxic concentration)” value was 80 µM and the “CC1 (cytotoxic concentration)” value stood at 80 µM.
For `Cc1cc(=O)c(O)c(CN(C)C)n1CC(F)(F)F` [Apo7065, 2-[(dimethylamino)methyl]-3-hydroxy-6-methyl-1-(2,2,2-trifluoroethyl)pyridin-4(1H)-one], in data set [1], the D7.4 was 4.93 and the logD was 0.69. Further, in data set [2], the “CC2 (cytotoxic concentration)” value is >640 µM and the “CC1 (cytotoxic concentration)” value is 40 µM.
Take `Cn1cc(Cl)c(=O)c(O)c1CC(F)(F)F` [Apo7066, 5-chloro-3-hydroxy-1-methyl-2-(2,2,2-trifluoroethyl)pyridin-4(1H)-one]: in data set [1], the D7.4 was 4.69 and the logD is 0.67. For the same compound, in data set [2], the “CC2 (cytotoxic concentration)” value amounted to 160 µM and the “CC1 (cytotoxic concentration)” value was 160 µM. Besides, in data set [3], the EC100 stood at 10 µM, the minimal effective concentration stood at 0.1 µM, the “CC2 (cytotoxic concentration)” value stood at 80 µM and the “CC1 (cytotoxic concentration)” value was 80 µM.
On to `Cc1c(Cl)c(=O)c(O)c(CC(F)(F)F)n1C` [Apo7040, 3-chloro-5-hydroxy-1,2-dimethyl-6-(2,2,2-trifluoroethyl)pyridin-4(1H)-one], for which, in data set [1], the D7.4 amounted to 8.76 and the logD amounted to 0.94. For the same compound, in data set [2], the “CC2 (cytotoxic concentration)” value is >640 µM and the “CC1 (cytotoxic concentration)” value is 160 µM. Besides, in data set [3], the EC100 was 40 µM, the minimal effective concentration came to 1 µM, the “CC2 (cytotoxic concentration)” value was determined as 80 µM and the “CC1 (cytotoxic concentration)” value worked out at 40 µM.
Take `CCc1c(O)c(=O)ccn1CC(F)(F)F` [Apo7030, 2-ethyl-3-hydroxy-1-(2,2,2-trifluoroethyl)pyridin-4(1H)-one]: the “AUC brain* (cal.)” value in data set [4] (rats, normalized to 1 mg/kg, value marked (cal.)) stood at 0.59 cal·µg·h/mL. For the same compound, the Kp in data set [4] (male Sprague-Dawley rats) is 1. Moreover, in data set [4] (setting [5]), the AUC came to 590 ng·h/mL. For the same compound, in data set [1], the D7.4 was 5.93 and the logD is 0.77. Besides, in data set [2], the “CC2 (cytotoxic concentration)” value is >640 µM and the “CC1 (cytotoxic concentration)” value is 640 µM. Further, in data set [3], the EC100 was determined as 20 µM, the minimal effective concentration was 1 µM, the “CC2 (cytotoxic concentration)” value was found to be 40 µM and the “CC1 (cytotoxic concentration)” value turned out to be 40 µM.
As to `Cc1c(O)c(=O)ccn1CC(F)(F)F` [Apo6995, 3-hydroxy-2-methyl-1-(2,2,2-trifluoroethyl)pyridin-4(1H)-one], in data set [4] (setting [5]), the “AUC brain*” value is 300 ng·h/mL and the AUC stood at 260 ng·h/mL. The Kp in data set [4] (male Sprague-Dawley rats) came to 1.2. Moreover, in data set [1], the D7.4 turned out to be 2.51 and the logD came to 0.4. In data set [2], the “CC2 (cytotoxic concentration)” value stood at 320 µM and the “CC1 (cytotoxic concentration)” value is 320 µM. Also, in data set [3], the EC100 was found to be 20 µM, the minimal effective concentration was 0.1 µM, the “CC2 (cytotoxic concentration)” value was determined as 80 µM and the “CC1 (cytotoxic concentration)” value came out at 80 µM.
As for `CN(C)C(c1c(O)c(=O)c(Cl)cn1C)C(F)(F)F` (stereo not shown) [Apo7060, 5-chloro-2-[1-(dimethylamino)-2,2,2-trifluoroethyl]-3-hydroxy-1-methylpyridin-4(1H)-one], in data set [1], the D7.4 is reported as 4.93 and the logD turned out to be 0.69. Besides, in data set [2], the “CC2 (cytotoxic concentration)” value is >640 µM and the “CC1 (cytotoxic concentration)” value was found to be 80 µM. In data set [3], the EC100 was found to be 10 µM, the minimal effective concentration came to 1 µM, the “CC2 (cytotoxic concentration)” value is 20 µM and the “CC1 (cytotoxic concentration)” value turned out to be 40 µM.

Broadly, the AUC is concentration integrated over time.
